Common to all, as to experiment: NCI-60 cell line screen, 48 h
The subject of experiment [1] is HT29 colon.
In experiment [2] the test system is NCI-H23 lung.
Experiment [3] deals with M14 melanoma.
The subject of experiment [4] is LOX IMVI melanoma.
Experiment [5] deals with SK-MEL-2 melanoma.
In experiment [6] the test system is KM12 colon.
The test system of experiment [7] is UACC-62 melanoma.
For experiment [8], the system named is MALME-3M melanoma.
Experiment [9] has as its system U251 CNS.
In experiment [10] the test system is SNB-19 CNS.

Several values for one entry are separate records, joined by “and”; a condition that tells them apart may be missing. Equal entries are not always repeated.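 Tested at 5 concentrations; 48 h exposure; 96-well plates; endpoints linearly interpolated, else capped at highest concentration. GI50 marks 50% less growth. At the TGI there is no net growth.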

`CN(C)CCNc1ccc2ncn3c4ccccc4c(=O)c1c23`: the TGI in experiment [1] was 10.6 µM; in [2] it was 14.5 µM; in [3] it was 13.7 µM; in experiment [4] it was 2.92 µM; in [5], 10.1 µM; in experiment [6] it was 13.3 µM. Besides, the TGI in experiment [7] worked out at 12.3 µM; in experiment [8], 10.2 µM; in experiment [9] it was 15.8 µM; in experiment [10] it was 47.5 µM.

As for `CC1(C)OC(=O)C(C)(C)C(=O)O1`, the TGI in experiment [1], in experiment [2], in experiment [3], in [4], in [5] and in experiment [6] was more than 100 µM each time. The TGI in [7], in experiment [8], in experiment [9] and in experiment [10] was more than 100 µM in each case.

In the case of `COc1ccccc1/C=C(/C)[N+](=O)[O-]`, the TGI is 12.6 µM and 9.89 µM in [1]; 5.81 µM in experiment [2]; 25.6 µM and 2.78 µM in experiment [3]; 2.1 µM in experiment [4]; 5.01 µM and 4.64 µM in [5]; 10.2 µM and 3.46 µM in experiment [6]. Further, the TGI in [7] was 3.93 µM and 3.12 µM; in experiment [8], 5.72 µM and 3.97 µM; in experiment [9] it was 4.19 µM and 3.43 µM; in [10], 15.1 µM and 5.77 µM. Moreover, in experiment [4], the GI50 is 0.263 µM.

For the compound `CC(C)/C=C1\CCC(CN(C)C)C1=O` (stereo unspecified), the TGI was 4.84 µM in experiment [1]; 25.4 µM in [2]; 5.52 µM in [3]; 11.9 µM in experiment [4]; 14.3 µM in [5]; 4.65 µM in experiment [6]. For the same compound, the TGI amounted to 32.6 µM in [7], 2.29 µM in experiment [8], 32.7 µM in experiment [9] and 21.6 µM in experiment [10].

On to `C#CC[C@@H]1C(=O)N(Cc2ccc(OC)cc2)[C@@H](C(C)C)C(=O)N1Cc1ccc(OC)cc1`, for which the TGI was 55.1 µM in experiment [1]; more than 100 µM in experiment [2]; more than 100 µM in [3]; more than 100 µM in experiment [4]; 55.1 µM in [5]; more than 100 µM in [6]. The TGI in [7], in [8], in experiment [9] and in experiment [10] was more than 100 µM in each case.

`CC(CSC(=N)N)C(N)=O` (stereo unspecified): the TGI in experiment [1], in experiment [2], in [3], in [4], in experiment [5] and in [6] was more than 100 µM throughout. Further, the TGI in experiment [7], in experiment [8], in experiment [9] and in experiment [10] was more than 100 µM in each case.

For `CC(=O)CCCCn1c(=O)c2c(nc(Br)n2C)n(C)c1=O`, the TGI in [1], in experiment [2], in experiment [3], in experiment [4], in [5] and in experiment [6] was more than 100 µM throughout. The TGI in [7], in experiment [8], in experiment [9] and in [10] was more than 100 µM in each case.

On to `CCOC1OC(CO)C(O)CC1n1ccc(=O)[nH]c1=O` (stereo unspecified), for which the TGI in experiment [1], in [2], in [3], in experiment [4], in [5] and in [6] was more than 100 µM each time. In addition, the TGI in experiment [7], in experiment [8], in experiment [9] and in experiment [10] was more than 100 µM throughout.

As to `CC1=C(c2nc3ccccc3s2)C(=O)OC1(C)C`, the TGI in experiment [1], in experiment [2], in experiment [3], in experiment [4], in experiment [5] and in experiment [6] was more than 100 µM in each case. Moreover, the TGI in experiment [7], in experiment [8], in experiment [9] and in [10] was more than 100 µM throughout.

As for `O[C@]12C=C(c3nccc4c3[nH]c3ccccc34)[C@@H]3CCN(CCCC/C=C\CC1)C[C@@]31CC3/C=C\CCCCN3[C@H]12` (stereo partly specified), the TGI in [1] was 1.36 µM; in [2], 2.53 µM; in [3], 0.896 µM; in [4], 0.84 µM; in experiment [5], 0.534 µM; in experiment [6], 1.3 µM. Moreover, the TGI in experiment [7] came to 0.159 µM; in experiment [8], 1.71 µM; in [9] it was 1.79 µM; in experiment [10] it was 16.2 µM.

Regarding `O=C1N/C(=N\N=C\c2ccccc2)C(c2ccccc2)O1` (stereo unspecified), the TGI in [1], in experiment [2], in [3], in [4], in [5] and in [6] was more than 100 µM throughout. In addition, the TGI in [7], in experiment [8], in experiment [9] and in experiment [10] was more than 100 µM each time.

`COc1ccc(C2=Nc3c(nc(OC)[nH]c3=O)NC(c3ccccc3)C2)cc1` (stereo unspecified): the TGI in experiment [1] is more than 100 µM; in experiment [2], more than 100 µM; in experiment [3], more than 100 µM; in experiment [4], 70.3 µM; in experiment [5], more than 100 µM; in experiment [6], 36.3 µM. The TGI in experiment [7] was more than 100 µM; in [8], more than 100 µM; in experiment [9], 65.6 µM; in experiment [10], more than 100 µM.

As to `COc1ccc(C(O)/C(=N/N)c2nc3ccc(Cl)cc3[nH]c2=O)cc1` (stereo unspecified), the TGI in [1], in experiment [2], in experiment [3], in experiment [4], in experiment [5] and in experiment [6] was more than 100 µM each time. Further, the TGI in experiment [7], in experiment [8], in [9] and in [10] was more than 100 µM each time.

On to `FC(F)(F)c1ccc(C2ON=C(c3ccccc3)N2C23CC4CC(CC(C4)C2)C3)cc1` (stereo unspecified), for which the TGI in experiment [1], in experiment [2], in experiment [3], in [4], in [5] and in [6] was more than 10 µM each time. For the same compound, the TGI in [7], in [8], in experiment [9] and in experiment [10] was more than 10 µM in each case.

In the case of `COC1(CC[C@@H](C)COC2OC(CO)C(O)C(O)C2O)O[C@H]2C[C@H]3[C@@H]4CC=C5C[C@@H](OC6OC(CO)C(OC7OC(C)C(O)C(O)C7O)C(O)C6OC6OC(C)C(O)C(O)C6O)CC[C@]5(C)[C@H]4CC[C@]3(C)[C@H]2[C@@H]1C` (stereo partly specified), the GI50 in experiment [1] was 1.89 µM; in experiment [2] it was 2.95 µM; in experiment [3], 1.58 µM; in experiment [4] it was 0.645 µM; in experiment [5], 3.26 µM; in experiment [6] it was 1.01 µM. For the same compound, the GI50 was 2.31 µM in [7], 1.96 µM in [8], 1.61 µM in [9] and 2.46 µM in experiment [10]. Moreover, the TGI is 4.3 µM in experiment [1]; 9.14 µM in experiment [2]; 8.42 µM in experiment [3]; 1.99 µM in [4]; 8.5 µM in [5]; 2.65 µM in experiment [6]. The TGI in experiment [7] was 16 µM; in experiment [8], 5.09 µM; in experiment [9], 4.31 µM; in experiment [10], 6.54 µM.

In the case of `O=C(Cc1ccccc1)NN1C(=O)C(Cl)C1c1ccccc1Cl` (stereo unspecified), the TGI in experiment [1] was more than 100 µM; in experiment [2], more than 100 µM; in experiment [3], more than 100 µM; in experiment [4], more than 59.5 µM; in [5], more than 100 µM; in [6], more than 100 µM. Besides, the TGI in experiment [7], in experiment [8], in experiment [9] and in [10] was more than 100 µM each time.

As for `COc1cc2ccc3c4ccccc4cnc3c2cc1OC`, the TGI in [1], in [2], in experiment [3], in experiment [4], in experiment [5] and in experiment [6] was more than 100 µM throughout. Besides, the TGI in [7], in [8], in experiment [9] and in [10] was more than 100 µM each time.

For the compound `COc1ccc(Nc2nc3ccccc3n3cccc23)cc1OC`, the TGI in experiment [1] is more than 100 µM; in experiment [2], 27.9 µM; in [3] it was 30.7 µM; in [4] it was 27.4 µM; in experiment [5], 33.3 µM; in experiment [6], 29.1 µM. For the same compound, the TGI was 27.4 µM in experiment [7], 32.9 µM in experiment [8], 35.9 µM in experiment [9] and more than 100 µM in experiment [10].

In the case of `CCOc1ccccc1N=Nc1ccc2oc(=O)c(C(C)=O)cc2c1`, the TGI in experiment [1], in experiment [2], in experiment [3], in experiment [4], in experiment [5] and in [6] was more than 100 µM each time. Moreover, the TGI in experiment [7], in experiment [8], in experiment [9] and in [10] was more than 100 µM each time.

In the case of `COc1ccc(/C=c2\c(=O)[nH]c3nc4ccccc4c(=O)n23)cc1`, the TGI in [1], in experiment [2], in experiment [3], in [4], in experiment [5] and in experiment [6] was more than 100 µM in each case. The TGI in [7], in [8], in [9] and in experiment [10] was more than 100 µM throughout.

For the compound `COc1ccc(C2c3cc4c(cc3OC(NNc3ccccc3)C2C)OCO4)cc1` (stereo unspecified), the TGI in experiment [1] is 51.7 µM; in [2] it was more than 100 µM; in [3] it was more than 100 µM; in experiment [4], more than 100 µM; in experiment [5] it was 98.1 µM; in [6] it was more than 100 µM. In addition, the TGI was 59.5 µM in [7], 52.9 µM in experiment [8], more than 100 µM in experiment [9] and more than 100 µM in experiment [10].

Consider `CCOC(=O)c1c[nH]c(C(=O)OCC)c1-c1cccn1-c1ccccc1`, for which the TGI in experiment [1] is 89.9 µM; in [2], more than 100 µM; in experiment [3], 41.9 µM; in [4] it was 32.4 µM; in [5], 35.5 µM; in experiment [6] it was 24.6 µM. Moreover, the TGI in [7] was 38.9 µM; in experiment [8], 56.4 µM; in experiment [9], 48 µM; in [10], more than 100 µM.

On to `COC(=O)C1CC2C=CC=CC(=O)C2(C)C1` (stereo unspecified), for which the TGI is more than 100 µM in experiment [1]; more than 100 µM in [2]; 88.5 µM in experiment [3]; more than 100 µM in experiment [4]; more than 100 µM in experiment [5]; more than 100 µM in experiment [6]. Further, the TGI in experiment [7], in [8], in experiment [9] and in experiment [10] was more than 100 µM throughout.

On to `CCc1n[nH]c(=O)n1CCCCCCCCn1c(CC)n[nH]c1=O`, for which the TGI in experiment [1], in [2], in [3], in [4], in experiment [5] and in experiment [6] was more than 100 µM in each case. Further, the TGI in experiment [7], in experiment [8], in [9] and in experiment [10] was more than 100 µM throughout.

Regarding `CN(C)c1ccc(/C=C/C(=O)c2ccc(O)cc2)cc1`, the TGI in experiment [1] was 29.9 µM; in [2], more than 100 µM; in [3], more than 100 µM; in experiment [4] it was 45.1 µM; in [5], more than 49.1 µM; in experiment [6], more than 100 µM. The TGI in [7] is 19.3 µM; in [8], 51 µM; in experiment [9] it was more than 42 µM; in experiment [10], more than 100 µM.

Turning to `C=C1CC(C)(COc2ccc3c(C)c(Cl)c(=O)oc3c2)OC1=O` (stereo unspecified), the TGI came out at 3.48 µM in [1]; 4.2 µM in experiment [2]; 3.65 µM in experiment [3]; 2.91 µM in experiment [4]; 4.47 µM in experiment [5]; 14.5 µM in [6]. Further, the TGI in experiment [7] came to 3.01 µM; in experiment [8] it was 7.63 µM; in [9], 21 µM; in experiment [10], 26.7 µM.
